Biological target: T1, cloned human dopamine D3 receptors (Homo sapiens, UniProt P35462)
T1 construct: expressed in transfected cells; membrane homogenate
Assay: [N-Methyl-3H]Spiroperidol binding to cloned human dopamine D3 receptors (Protocol 1)
Settings: the 15th table; read-out: D3 Ki
Summary of the method: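 Radioligand displacement with [N-methyl-3H]spiroperidol used a physiological-salt Tris buffer (0.05 M, pH 7.7; NaCl 120 mM, KCl 5 mM, CaCl2 2 mM, MgCl2 1 mM) and membranes of a high-expressing stable CHO clone carrying human D3. Total ligand concentration came from measured added CPM; 0.1% ascorbic acid was optional for oxidizable compounds.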

T1 sequence (P35462 whole entry): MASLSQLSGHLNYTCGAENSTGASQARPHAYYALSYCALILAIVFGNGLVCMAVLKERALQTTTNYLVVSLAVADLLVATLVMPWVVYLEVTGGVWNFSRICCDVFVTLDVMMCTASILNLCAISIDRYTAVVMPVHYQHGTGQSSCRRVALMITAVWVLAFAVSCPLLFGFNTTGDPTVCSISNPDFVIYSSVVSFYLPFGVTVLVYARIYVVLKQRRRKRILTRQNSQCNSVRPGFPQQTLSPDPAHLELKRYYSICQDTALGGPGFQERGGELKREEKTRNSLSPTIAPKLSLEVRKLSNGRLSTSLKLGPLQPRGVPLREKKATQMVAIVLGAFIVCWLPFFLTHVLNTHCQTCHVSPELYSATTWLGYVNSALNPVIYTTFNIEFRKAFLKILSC

| Structure (SMILES) | Ki |
| --- | --- |
| O=C(NCCCCN1C2CCC1CC(c1noc3cc(F)ccc13)C2)c1cccs1 (centres unmarked) [compound 816323] | 832 nM |
| CCCCOc1ccc(C(=O)NCCCCN2C3CCC2CC(c2noc4cc(F)ccc24)C3)cc1 (centres unmarked) [compound 816325] | 58.3 nM |
| O=C(NCCCCN1C2CCC1CC(c1noc3cc(F)ccc13)C2)c1ccc(C(F)(F)F)cc1 (centres unmarked) [compound 816326] | 223 nM |
| O=C(Cc1ccccc1)NCCCCN1C2CCC1CC(c1noc3cc(F)ccc13)C2 (centres unmarked) [compound 816327] | 392 nM |
| O=C(NCCCCN1C2CCC1CC(c1noc3cc(F)ccc13)C2)c1cccc(F)c1F (centres unmarked) [compound 816329] | 356 nM |
| O=C(NCCCCN1C2CCC1CC(c1noc3cc(F)ccc13)C2)c1cccc2ccccc12 (centres unmarked) [compound 816330] | 186 nM |
| O=C(NCCCCN1C2CCC1CC(c1noc3cc(F)ccc13)C2)c1ccc(-c2ccccc2)cc1 (centres unmarked) [compound 816331] | 44.2 nM |
| COc1ccc(C(=O)NCCCCN2C3CCC2CC(c2noc4cc(F)ccc24)C3)cc1OC (centres unmarked) [compound 816332] | 588 nM |
| O=C(NCCCCN1C2CCC1CC(c1noc3cc(F)ccc13)C2)c1ccc(F)cc1 (centres unmarked) [compound 816333] | 474 nM |
| O=C(NCCCCN1C2CCC1CC(c1noc3cc(F)ccc13)C2)c1cc2ccccc2s1 (centres unmarked) [compound 816334] | 64.6 nM |
| O=C(NCCCCN1C2CCC1CC(c1noc3cc(F)ccc13)C2)c1ccc(Br)cc1 (centres unmarked) [compound 816335] | 268 nM |
| CSc1ncccc1C(=O)NCCCCN1C2CCC1CC(c1noc3cc(F)ccc13)C2 (centres unmarked) [compound 816338] | 692 nM |
| O=C(NCCCCN1C2CCC1CC(c1noc3cc(F)ccc13)C2)c1ccccc1C(F)(F)F (centres unmarked) [compound 816340] | 427 nM |
| CCCc1ccc(C(=O)NCCCCN2C3CCC2CC(c2noc4cc(F)ccc24)C3)cc1 (centres unmarked) [compound 816341] | 50.9 nM |
| COc1ccccc1C(=O)NCCCCN1C2CCC1CC(c1noc3cc(F)ccc13)C2 (centres unmarked) [compound 816343] | 344 nM |
| Cc1ccc(C(=O)NCCCCN2C3CCC2CC(c2noc4cc(F)ccc24)C3)cc1 (centres unmarked) [compound 816344] | 378 nM |

| Structure (SMILES) | Ki |
| --- | --- |
| CCCCCCc1ccc(C(=O)NCCCCN2C3CCC2CC(c2noc4cc(F)ccc24)C3)cc1 (centres unmarked) [compound 816345] | 95.6 nM |
| O=C(NCCCCN1C2CCC1CC(c1noc3ccccc13)C2)c1cccs1 (centres unmarked) [compound 816519] | 305 nM |
| O=C(NCCCCN1C2CCC1CC(c1noc3ccccc13)C2)c1ccc(F)cc1 (centres unmarked) [compound 816520] | 292 nM |
| O=C(Cc1cccs1)NCCCCN1C2CCC1CC(c1noc3ccccc13)C2 (centres unmarked) [compound 816521] | 328 nM |
| O=C(NCCCCN1C2CCC1CC(c1noc3ccccc13)C2)c1ccccc1C(F)(F)F (centres unmarked) [compound 816522] | 240 nM |
| O=C(NCCCCN1C2CCC1CC(c1noc3ccccc13)C2)c1ccc(Cl)cc1 (centres unmarked) [compound 816523] | 165 nM |
| O=C(NCCCCN1C2CCC1CC(c1noc3ccccc13)C2)C1CCCCC1 (centres unmarked) [compound 816524] | 357 nM |
| COc1ccccc1C(=O)NCCCCN1C2CCC1CC(c1noc3ccccc13)C2 (centres unmarked) [compound 816525] | 148 nM |
| Cc1ccc(C(=O)NCCCCN2C3CCC2CC(c2noc4ccccc24)C3)cc1 (centres unmarked) [compound 816526] | 375 nM |
| CCCCCCc1ccc(C(=O)NCCCCN2C3CCC2CC(c2noc4ccccc24)C3)cc1 (centres unmarked) [compound 816527] | 64.8 nM |
| O=C(NCCCCN1C2CCC1CC(c1noc3ccccc13)C2)c1ccccc1 (centres unmarked) [compound 816528] | 299 nM |
| CCCCOc1ccc(C(=O)NCCCCN2C3CCC2CC(c2noc4ccccc24)C3)cc1 (centres unmarked) [compound 816529] | 42.5 nM |
| O=C(NCCCCN1C2CCC1CC(c1noc3ccccc13)C2)c1ccc(C(F)(F)F)cc1 (centres unmarked) [compound 816530] | 110 nM |
| Cc1ccccc1C(=O)NCCCCN1C2CCC1CC(c1noc3ccccc13)C2 (centres unmarked) [compound 816531] | 299 nM |
| O=C(NCCCCN1C2CCC1CC(c1noc3ccccc13)C2)c1ccc(-c2ccccc2)cc1 (centres unmarked) [compound 816532] | 56.8 nM |
| COc1ccc(C(=O)NCCCCN2C3CCC2CC(c2noc4ccccc24)C3)cc1 (centres unmarked) [compound 816534] | 149 nM |
